# Laboratory results taken from the OligoGym collection.
# After the bases stand the sugars from the 5' end (letter, count) and the backbone: PS all phosphorothioate, else s phosphorothioate and o phosphodiester by linkage. Methylation of C is not given here. e = 2'-O-(2-methoxyethyl) (MOE); k = constrained ethyl (cEt); d = 2'-deoxy (DNA); m = 2'-O-methyl
# Tests used:
# IRF4 = conditions: ASO
# HSD17B13 = conditions: ASO, HepaRG
Sequence,target mRNA inhibition (HSD17B13; 1 µM) [%],also measured
"AAAACAGCCGCCGGCA (sugars k3 d10 k3, PS)",–,"target mRNA inhibition (IRF4; MM.1R, 1 µM): -9%"
"AAAATATAACGGTGTT (sugars k3 d10 k3, PS)",–,"target mRNA inhibition (IRF4; SK-MEL-28, 4 µM): 31%"
"AAAATATCGCCCATGA (sugars k3 d10 k3, PS)",–,"target mRNA inhibition (IRF4; SK-MEL-28, 4 µM): 41%"
"AAACACAGTCTGCTGC (sugars k3 d10 k3, PS)",–,"target mRNA inhibition (IRF4; SK-MEL-28, 4 µM): 35%"
"AAACAGGAACTGACCT (sugars k3 d10 k3, PS)",–,"target mRNA inhibition (IRF4; SK-MEL-28, 4 µM): 20%"
"AAACGGACTGGAACAT (sugars k3 d10 k3, PS)",–,"target mRNA inhibition (IRF4; SK-MEL-28, 4 µM): 7%"
"AAACTTGGGTCACTTA (sugars k3 d10 k3, PS)",–,"target mRNA inhibition (IRF4; MM.1R, 1 µM): 5%"
"AAAGAGCGCATTTCAG (sugars k3 d10 k3, PS)",–,"target mRNA inhibition (IRF4; SK-MEL-28, 4 µM): 6%"
"AAAGAGCTGGTAGGTC (sugars k3 d10 k3, PS)",–,"target mRNA inhibition (IRF4; MM.1R, 1 µM): -35%"
"AAAGAGCTTGCAGGTC (sugars k3 d10 k3, PS)",–,"target mRNA inhibition (IRF4; SK-MEL-28, 4 µM): 37%"
"AAAGAGGCACCCTCCT (sugars k3 d10 k3, PS)",–,"target mRNA inhibition (IRF4; SK-MEL-28, 4 µM): -38%"
"AAAGAGGGTCACAGGT (sugars k3 d10 k3, PS)",–,"target mRNA inhibition (IRF4; SK-MEL-28, 4 µM): 34%"
"AAAGATACAAAACGGA (sugars k3 d10 k3, PS)",–,"target mRNA inhibition (IRF4; SK-MEL-28, 4 µM): 38%"
"AAAGGTTCCTGTCACC (sugars k3 d10 k3, PS)",–,"target mRNA inhibition (IRF4; SK-MEL-28, 4 µM): 38%"
"AAAGTAACTGACACGC (sugars k3 d10 k3, PS)",–,"target mRNA inhibition (IRF4; SK-MEL-28, 4 µM): 67%"
"AAAGTCCCATCGAATC (sugars k3 d10 k3, PS)",–,"target mRNA inhibition (IRF4; SK-MEL-28, 4 µM): 13%"
"AAATACGACAACTTTC (sugars k3 d10 k3, PS)",–,"target mRNA inhibition (IRF4; SK-MEL-28, 4 µM): 21%"
"AAATCACGAGGTTGCC (sugars k3 d10 k3, PS)",–,"target mRNA inhibition (IRF4; MM.1R, 1 µM): 21%"
"AAATGAGTCGGTCACT (sugars k3 d10 k3, PS)",–,"target mRNA inhibition (IRF4; SK-MEL-28, 4 µM): 55%"
"AAATTAAAGAGCGCAT (sugars k3 d10 k3, PS)",–,"target mRNA inhibition (IRF4; SK-MEL-28, 4 µM): 13%"
"AACACCTGATCTTGCT (sugars k3 d10 k3, PS)",–,"target mRNA inhibition (IRF4; SK-MEL-28, 4 µM): -10%"
"AACAGAGACGCGGTGA (sugars k3 d10 k3, PS)",–,"target mRNA inhibition (IRF4; SK-MEL-28, 4 µM): 10%"
"AACAGGCTATCAGGAT (sugars k3 d10 k3, PS)",–,"target mRNA inhibition (IRF4; SK-MEL-28, 4 µM): 17%"
"AACAGTAAGAGGGCAG (sugars k3 d10 k3, PS)",–,"target mRNA inhibition (IRF4; SK-MEL-28, 4 µM): 63%"
"AACCAATCCCAACACT (sugars k3 d10 k3, PS)",–,"target mRNA inhibition (IRF4; SK-MEL-28, 4 µM): 12%"
"AACCAGTACAGTCCAC (sugars k3 d10 k3, PS)",–,"target mRNA inhibition (IRF4; SK-MEL-28, 4 µM): 35%"

Sequence,target mRNA inhibition (HSD17B13; 1 µM) [%],also measured
"AACGAGGTAAATCTTC (sugars k3 d10 k3, PS)",–,"target mRNA inhibition (IRF4; SK-MEL-28, 4 µM): 51%"
"AACGCAAGTCTGAATT (sugars k3 d10 k3, PS)",–,"target mRNA inhibition (IRF4; MM.1R, 1 µM): 3%"
"AACTATCTTATTCCTC (sugars k3 d10 k3, PS)",–,"target mRNA inhibition (IRF4; SK-MEL-28, 4 µM): 30%"
"AACTCATAGGTGTACA (sugars k3 d10 k3, PS)",–,"target mRNA inhibition (IRF4; SK-MEL-28, 4 µM): 61%"
"AACTCTGAGTAGACTT (sugars k3 d10 k3, PS)",–,"target mRNA inhibition (IRF4; SK-MEL-28, 4 µM): 28%"
"AAGAACTGCTGTGTGT (sugars k3 d10 k3, PS)",–,"target mRNA inhibition (IRF4; SK-MEL-28, 4 µM): 12%"
"AAGACCCCGTATCCCC (sugars k3 d10 k3, PS)",–,"target mRNA inhibition (IRF4; SK-MEL-28, 4 µM): 42%"
"TTACCCCTGGCTTTTC (sugars k3 d10 k3, PS)",26,–
"TTAGAAGTCAGCCCAA (sugars k3 d10 k3, PS)",37,–
"TTAGAATAGTCTTCAG (sugars k3 d10 k3, PS)",52,–
"TTAGAGTGAATCATTC (sugars k3 d10 k3, PS)",69,–
"TTAGATTGCATAAGAG (sugars k3 d10 k3, PS)",61,–
"TTAGCTTAAACTCCAA (sugars k3 d10 k3, PS)",78,target mRNA inhibition (HSD17B13; 0.02 µM): 0%; target mRNA inhibition (HSD17B13; 0.078 µM): 18%; target mRNA inhibition (HSD17B13; 0.313 µM): 38%; target mRNA inhibition (HSD17B13; 1.25 µM): 75%; target mRNA inhibition (HSD17B13; 5 µM): 82%
"TTAGGATTAATTCCCT (sugars k3 d10 k3, PS)",14,–
"TTAGTCTTGATGTAGT (sugars k3 d10 k3, PS)",61,–
"TTAGTTAGAATAGTCT (sugars k3 d9 k3 e1, PS)",67,–
"TTATAACTACAAGAGG (sugars k3 d9 k3 e1, PS)",43,–
"TTATAGACTGGGTAGG (sugars k3 d10 k3, PS)",51,–
"TTATGTAATAGCCAGT (sugars k3 d9 k3 e1, PS)",77,target mRNA inhibition (HSD17B13; 0.02 µM): 0%; target mRNA inhibition (HSD17B13; 0.078 µM): 13%; target mRNA inhibition (HSD17B13; 0.313 µM): 14%; target mRNA inhibition (HSD17B13; 1.25 µM): 74%; target mRNA inhibition (HSD17B13; 5 µM): 92%
"TTATGTGATTGAGTTC (sugars k3 d10 k3, PS)",34,–
"TTATTAGAAGTCAGCC (sugars k3 d10 k3, PS)",36,–
"TTATTATGAGGATCTG (sugars k3 d10 k3, PS)",50,–
"TTATTCACCACGATTG (sugars k3 d10 k3, PS)",40,–
"TTATTGCCTGAACACA (sugars k3 d10 k3, PS)",58,–
"TTCACAAAAACTGGGC (sugars k3 d10 k3, PS)",37,–
"TTCAGTCCTTGTGTAG (sugars k3 d10 k3, PS)",45,–

Sequence,target mRNA inhibition (HSD17B13; 1 µM) [%],also measured
"TTCCATCTATCAGACT (sugars k3 d1 m1 d8 k3, PS)",38,–
"TTCCATCTATCAGACT (sugars k3 d9 k3 e1, PS)",43,–
"TTCTGTGGCATGGCTA (sugars kkdddddddddkekek, PS)",50,–
"TTCTTACGACTTCATC (sugars k3 d10 k3, PS)",47,–
"TTCTTATGTAATAGCC (sugars k3 d10 k3, PS)",71,target mRNA inhibition (HSD17B13; 0.02 µM): 16%; target mRNA inhibition (HSD17B13; 0.078 µM): 39%; target mRNA inhibition (HSD17B13; 0.313 µM): 66%; target mRNA inhibition (HSD17B13; 1.25 µM): 86%; target mRNA inhibition (HSD17B13; 5 µM): 96%
"TTCTTATGTAATAGCC (sugars kkdddddddddkekek, PS)",78,target mRNA inhibition (HSD17B13; 0.02 µM): 8%; target mRNA inhibition (HSD17B13; 0.078 µM): 28%; target mRNA inhibition (HSD17B13; 0.313 µM): 52%; target mRNA inhibition (HSD17B13; 1.25 µM): 79%; target mRNA inhibition (HSD17B13; 5 µM): 82%
"TTCTTGAGAGTGATTG (sugars k3 d10 k3, PS)",52,–
"TTCTUATGTAATAGCC (sugars k3 d1 m1 d8 k3, PS)",66,–
"TTGAACAGTCTTAAAC (sugars k3 d10 k3, PS)",33,–
"TTGAACCGTATTCCCA (sugars k3 d10 k3, PS)",76,–
"TTGAATAGCAAGCCAA (sugars kkdddddddddkekek, PS)",27,–
"TTGACTAAGGAGCTAG (sugars k3 d10 k3, PS)",20,–
"TTGACTGCTGCTAGTG (sugars k3 d9 k3 e1, PS)",50,–
"TTGACTGCTGCTAGTG (sugars k3 d10 k3, PS)",30,–
"TTGAGATAAAGCTGCC (sugars k3 d1 m1 d8 k3, PS)",51,–
"TTGAGATAAAGCTGCC (sugars k3 d10 k3, PS)",49,–
"TTGAGCCTAAAATTGT (sugars k3 d10 k3, PS)",36,–
"TTGAGTAGTGTAAGCT (sugars k3 d1 m1 d8 k3, PS)",35,–
"TTGAGTAGTGTAAGCT (sugars k3 d10 k3, PS)",52,–
"TTGAGTAGTGTAAGCT (sugars kkdddddddddkekek, PS)",29,–
"TTGAGTTCTCCACTGC (sugars k3 d9 k3 e1, PS)",26,–
"TTGAGTTCTCCACTGC (sugars kkdddddddddkekek, PS)",20,–
"TTGATATTCTGTGGCA (sugars k3 d9 k3 e1, PS)",76,target mRNA inhibition (HSD17B13; 0.02 µM): 0%; target mRNA inhibition (HSD17B13; 0.078 µM): 0%; target mRNA inhibition (HSD17B13; 0.313 µM): 25%; target mRNA inhibition (HSD17B13; 1.25 µM): 51%; target mRNA inhibition (HSD17B13; 5 µM): 55%
"TTGATATTCTGTGGCA (sugars kkdddddddddkekek, PS)",55,–
"TTGATGTAGTGGGAGT (sugars k3 d10 k3, PS)",68,–
"TTGAUCTCTTAGCTGT (sugars k3 d1 m1 d8 k3, PS)",50,–

Sequence,target mRNA inhibition (HSD17B13; 1 µM) [%],also measured
"TTGCAAAATGTGATGC (sugars k3 d10 k3, PS)",75,–
"TTGCAATGAGATTACC (sugars k3 d10 k3, PS)",29,–
"TTGCACCGTTTTGGGC (sugars k3 d10 k3, PS)",45,–
"TTGCAGAAATTCACCT (sugars k3 d9 k3 e1, PS)",29,–
"TTGCAGTTATTAGAAG (sugars k3 d10 k3, PS)",13,–
"TTGGAATGCTACTTGA (sugars k3 d9 k3 e1, PS)",56,–
"TTGGACATGAAGATTA (sugars k3 d10 k3, PS)",18,–
"TTGGTAAGTATTCCAT (sugars kkdddddddddkekek, PS)",13,–
"TTGTATTTCGCTACTG (sugars k3 d10 k3, PS)",58,–
"TTTAAAATAGAGTCGG (sugars k3 d1 m1 d8 k3, PS)",77,–
"TTTAACTACCCTCACA (sugars k3 d10 k3, PS)",0,–
"TTTAGTTGGTAGCTTG (sugars k3 d10 k3, PS)",63,–
"TTTATAACTACAAGAG (sugars k3 d10 k3, PS)",38,–
"TTTATGTAAGCACAGA (sugars k3 d10 k3, PS)",70,–
"TTTCAGATCCCGTTCT (sugars k3 d10 k3, PS)",45,–
"TTTCTCTCCATCATCG (sugars k3 d10 k3, PS)",27,–
"TTTCTTATGTAATAGC (sugars k3 d10 k3, PS)",76,–
"TTTCTTATTGGTAAGT (sugars k3 d10 k3, PS)",44,–
"TTTGGTGAACCCAGTA (sugars k3 d10 k3, PS)",34,–
"TTTTAATACGACTTCC (sugars k3 d10 k3, PS)",57,–
"TTTTATTATGAGGATC (sugars k3 d10 k3, PS)",18,–
"TTTTCGGCACTCAGCT (sugars k3 d10 k3, PS)",13,–
"TTTTGTCCACCTTTAA (sugars k3 d10 k3, PS)",68,–
